Literature values, collected in PMC9268102, “Design, Synthesis and Biological Evaluation of 1,3,5-Triazine Derivatives Targeting hA1 and hA3 Adenosine Receptor” (Molecules, 2022).
Several values for one entry are separate records, joined by “and”; a condition that tells them apart may be missing. Equal values may be shown once.

Assays:
hA1 AR = target: T1, hA1 AR (Homo sapiens, UniProt P30542); details: read-out: Ki at hA1AR; cited from earlier work
T1 construct: host or cells: CHO-A1 (CHO cells expressing hA1 AR)
T1 sequence (P30542 1-326): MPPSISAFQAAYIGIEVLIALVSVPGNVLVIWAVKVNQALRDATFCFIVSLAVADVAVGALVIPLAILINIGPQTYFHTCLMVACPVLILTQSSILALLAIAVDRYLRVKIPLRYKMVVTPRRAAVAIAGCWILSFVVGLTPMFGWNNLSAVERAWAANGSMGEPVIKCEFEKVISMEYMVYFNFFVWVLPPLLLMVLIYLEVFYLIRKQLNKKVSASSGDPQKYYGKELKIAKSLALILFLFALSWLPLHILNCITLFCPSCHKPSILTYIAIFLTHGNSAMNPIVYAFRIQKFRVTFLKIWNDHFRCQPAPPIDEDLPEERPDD

hA2A AR = target: T2, hA2A AR (Homo sapiens, UniProt P29274); details: cited from earlier work
T2 construct: expressed in transfected cells; host or cells: Hela-A2A cell line

hA3 AR = target: T3, hA3 AR (Homo sapiens, UniProt P0DMS8); set-up: expressed in transfected cells; host or cells: Hela-A3 cell line; method as in PMID 31280999, PMID 31780082, PMID 27531666; details: read-out: Ki at hA3AR; cited from earlier work
T3 sequence (P0DMS8 1-318): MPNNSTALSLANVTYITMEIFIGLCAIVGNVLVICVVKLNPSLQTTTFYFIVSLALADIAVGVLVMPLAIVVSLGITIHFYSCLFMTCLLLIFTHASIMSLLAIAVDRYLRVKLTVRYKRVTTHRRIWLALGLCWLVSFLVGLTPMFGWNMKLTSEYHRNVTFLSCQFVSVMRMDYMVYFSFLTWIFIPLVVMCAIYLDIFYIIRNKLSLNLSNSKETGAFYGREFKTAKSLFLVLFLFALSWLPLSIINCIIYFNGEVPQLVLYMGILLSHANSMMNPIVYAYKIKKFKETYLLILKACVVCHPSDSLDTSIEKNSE

T2 sequence (P29274 whole entry): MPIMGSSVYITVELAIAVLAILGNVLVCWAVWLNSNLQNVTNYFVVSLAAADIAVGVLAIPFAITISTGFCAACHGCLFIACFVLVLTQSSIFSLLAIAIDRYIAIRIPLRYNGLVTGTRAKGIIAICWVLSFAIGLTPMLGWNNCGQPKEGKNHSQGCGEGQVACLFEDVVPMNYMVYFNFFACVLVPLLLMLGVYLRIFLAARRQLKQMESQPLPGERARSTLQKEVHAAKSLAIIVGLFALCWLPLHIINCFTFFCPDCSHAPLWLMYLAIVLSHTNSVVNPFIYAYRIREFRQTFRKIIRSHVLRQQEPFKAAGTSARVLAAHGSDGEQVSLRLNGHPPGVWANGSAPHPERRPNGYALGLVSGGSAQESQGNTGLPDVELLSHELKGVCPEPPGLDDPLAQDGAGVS

Nc1nc(NCCc2ccc(O)cc2)nc(Nc2nc(-c3ccc(F)cc3)cs2)n1 [Compound 6]
Ki (hA1 AR): 478 nM | Selectivity hA1/hA2AAR (hA2A AR): 319 and 318.9

Cc1ccsc1/C=C/c1nc(N)nc(-c2ccccc2O)n1 [Compound 3]
Ki (hA1 AR): 32.9 nM | Selectivity hA1/hA2AAR (hA2A AR): 9.5

COc1cc(Cl)ccc1Nc1nc(N)nc(-c2oc3ccccc3c2C)n1 [Compound 4]
Ki (hA1 AR): 1440 nM | Selectivity hA1/hA2AAR (hA2A AR): 2.94 | Ki (hA2A AR; read-out: Ki at hA2AAR): 490 nM

CN1CCN(c2nc(-c3cccc(O)c3)nc3[nH]cnc23)CC1 [Compound 1]
Ki (hA1 AR): 6.8 nM | Ki (hA3 AR): 6.3 nM
